We go through 14 compounds from paper PMC9317481, “Design and Synthesis of New Hydantoin Acetanilide Derivatives as Anti-NSCLC Targeting EGFR^L858R/T790M Mutations” (Pharmaceuticals, 2022).

Structures are written as SMILES.

One data set has as its system PC9 cells. The data set is described as follows: MTT antiproliferative assay, PC9. Conditions: Homo sapiens, PC-9, read-out: IC50 (µM) PC9.
Data set [1] deals with A549, H1975, and PC9 cell lines. Put plainly: MTT antiproliferative assay, average of the three NSCLC cell lines. Particulars: Homo sapiens, read-out: IC50 (µM) Average.
A further data set has as its system H1975 cells. The data set is described as follows: MTT antiproliferative assay, H1975. Conditions: Homo sapiens, NCI-H1975, read-out: IC50 (µM) H1975.
The subject of a further data set is A549 cells. Put plainly: MTT antiproliferative assay, A549. Particulars: Homo sapiens, A549, read-out: IC50 (µM) A549.
The next data set deals with EGFR^L858R (Homo sapiens, UniProt P00533, L858R). Put plainly: EGFR kinase assay (L858R).
Another data set addresses EGFR^T790M (Homo sapiens, UniProt P00533, T790M). Put plainly: EGFR kinase assay (T790M).
The next data set deals with EGFR^WT (Homo sapiens, UniProt P00533). The data set is described as follows: EGFR kinase assay (wild type).
The subject of a further data set is WI-38 normal cells. The data set is described as follows: MTT cytotoxicity on normal fibroblast WI-38 cells. Conditions: for IC50: Homo sapiens, WI-38, read-out: WI-38, IC50 (µM).
A further data set relates to Akt. The data set is described as follows: Akt enzyme assay (Phospho-Ser473 ELISA) in A549 cells. Particulars: read-out: Enzymatic Inhibition, IC50, (nM) Akt. It is filed as cell-based, human.
For a further data set, the system named is ERK. The data set is described as follows: ERK enzyme assay (ELISA) in A549 cells. Particulars: read-out: Enzymatic Inhibition, IC50, (nM) ERK. It is filed as cell-based, human.

EGFR^T790M, sequence (P00533 25-1210 T790M): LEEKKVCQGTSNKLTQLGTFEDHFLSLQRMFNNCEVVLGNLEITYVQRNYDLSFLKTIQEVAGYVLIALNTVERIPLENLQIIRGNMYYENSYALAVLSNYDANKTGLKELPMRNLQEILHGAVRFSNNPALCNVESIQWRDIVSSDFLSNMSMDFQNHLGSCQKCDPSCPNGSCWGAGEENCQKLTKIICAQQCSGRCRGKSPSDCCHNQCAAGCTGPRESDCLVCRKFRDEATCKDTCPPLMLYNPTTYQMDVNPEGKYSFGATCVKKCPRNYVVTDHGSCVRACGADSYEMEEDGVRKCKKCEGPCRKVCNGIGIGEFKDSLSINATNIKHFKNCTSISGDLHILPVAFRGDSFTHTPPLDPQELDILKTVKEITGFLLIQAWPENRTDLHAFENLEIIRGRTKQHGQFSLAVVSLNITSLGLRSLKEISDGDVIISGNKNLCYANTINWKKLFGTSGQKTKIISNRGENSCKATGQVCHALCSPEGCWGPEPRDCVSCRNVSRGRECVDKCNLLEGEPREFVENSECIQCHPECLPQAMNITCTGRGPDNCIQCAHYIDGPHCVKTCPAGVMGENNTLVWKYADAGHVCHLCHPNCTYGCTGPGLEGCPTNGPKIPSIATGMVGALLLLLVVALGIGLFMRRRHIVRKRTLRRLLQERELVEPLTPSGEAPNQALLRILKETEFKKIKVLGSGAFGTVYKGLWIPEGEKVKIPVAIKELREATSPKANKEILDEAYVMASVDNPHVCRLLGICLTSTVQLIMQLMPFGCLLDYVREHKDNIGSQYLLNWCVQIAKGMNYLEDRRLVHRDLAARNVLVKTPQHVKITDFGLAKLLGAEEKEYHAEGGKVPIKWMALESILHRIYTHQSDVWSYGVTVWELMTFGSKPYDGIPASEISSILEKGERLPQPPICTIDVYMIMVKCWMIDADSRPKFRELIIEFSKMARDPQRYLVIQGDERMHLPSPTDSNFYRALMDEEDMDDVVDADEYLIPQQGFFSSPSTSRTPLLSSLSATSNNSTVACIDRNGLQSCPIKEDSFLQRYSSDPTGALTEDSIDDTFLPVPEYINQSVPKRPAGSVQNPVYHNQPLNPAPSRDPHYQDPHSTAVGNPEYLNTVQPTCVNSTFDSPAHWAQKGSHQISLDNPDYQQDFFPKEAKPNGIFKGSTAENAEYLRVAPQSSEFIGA
EGFR^L858R, sequence (P00533 25-1210 L858R): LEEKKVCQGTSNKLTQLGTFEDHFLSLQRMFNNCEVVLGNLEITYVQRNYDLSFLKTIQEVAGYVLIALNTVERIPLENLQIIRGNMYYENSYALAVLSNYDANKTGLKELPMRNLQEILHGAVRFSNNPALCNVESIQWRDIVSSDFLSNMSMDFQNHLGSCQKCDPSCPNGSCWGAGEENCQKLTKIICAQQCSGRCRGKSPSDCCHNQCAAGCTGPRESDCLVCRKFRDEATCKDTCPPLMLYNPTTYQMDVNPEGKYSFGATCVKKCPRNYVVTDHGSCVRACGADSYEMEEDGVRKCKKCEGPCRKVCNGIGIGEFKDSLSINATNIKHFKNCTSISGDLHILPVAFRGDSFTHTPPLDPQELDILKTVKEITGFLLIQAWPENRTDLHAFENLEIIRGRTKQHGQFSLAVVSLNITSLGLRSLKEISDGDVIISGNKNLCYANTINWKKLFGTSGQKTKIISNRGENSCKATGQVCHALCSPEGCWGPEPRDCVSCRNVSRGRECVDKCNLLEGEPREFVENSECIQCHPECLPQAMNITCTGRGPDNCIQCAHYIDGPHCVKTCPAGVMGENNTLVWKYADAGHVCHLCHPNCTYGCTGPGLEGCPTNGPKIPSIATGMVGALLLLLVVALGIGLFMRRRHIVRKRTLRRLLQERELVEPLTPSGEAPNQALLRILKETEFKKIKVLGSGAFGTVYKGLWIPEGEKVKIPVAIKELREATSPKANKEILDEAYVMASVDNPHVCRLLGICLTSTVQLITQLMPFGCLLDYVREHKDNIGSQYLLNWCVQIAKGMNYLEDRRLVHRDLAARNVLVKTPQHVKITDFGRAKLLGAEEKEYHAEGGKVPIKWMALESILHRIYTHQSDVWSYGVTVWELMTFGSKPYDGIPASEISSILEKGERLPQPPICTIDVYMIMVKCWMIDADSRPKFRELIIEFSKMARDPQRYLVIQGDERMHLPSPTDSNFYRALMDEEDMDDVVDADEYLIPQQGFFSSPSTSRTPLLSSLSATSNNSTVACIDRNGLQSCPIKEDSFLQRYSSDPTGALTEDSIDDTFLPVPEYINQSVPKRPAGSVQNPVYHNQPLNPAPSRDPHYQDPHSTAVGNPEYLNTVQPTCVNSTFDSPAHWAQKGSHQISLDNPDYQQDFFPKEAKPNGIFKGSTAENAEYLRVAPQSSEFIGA
EGFR^WT, sequence (P00533 25-1210): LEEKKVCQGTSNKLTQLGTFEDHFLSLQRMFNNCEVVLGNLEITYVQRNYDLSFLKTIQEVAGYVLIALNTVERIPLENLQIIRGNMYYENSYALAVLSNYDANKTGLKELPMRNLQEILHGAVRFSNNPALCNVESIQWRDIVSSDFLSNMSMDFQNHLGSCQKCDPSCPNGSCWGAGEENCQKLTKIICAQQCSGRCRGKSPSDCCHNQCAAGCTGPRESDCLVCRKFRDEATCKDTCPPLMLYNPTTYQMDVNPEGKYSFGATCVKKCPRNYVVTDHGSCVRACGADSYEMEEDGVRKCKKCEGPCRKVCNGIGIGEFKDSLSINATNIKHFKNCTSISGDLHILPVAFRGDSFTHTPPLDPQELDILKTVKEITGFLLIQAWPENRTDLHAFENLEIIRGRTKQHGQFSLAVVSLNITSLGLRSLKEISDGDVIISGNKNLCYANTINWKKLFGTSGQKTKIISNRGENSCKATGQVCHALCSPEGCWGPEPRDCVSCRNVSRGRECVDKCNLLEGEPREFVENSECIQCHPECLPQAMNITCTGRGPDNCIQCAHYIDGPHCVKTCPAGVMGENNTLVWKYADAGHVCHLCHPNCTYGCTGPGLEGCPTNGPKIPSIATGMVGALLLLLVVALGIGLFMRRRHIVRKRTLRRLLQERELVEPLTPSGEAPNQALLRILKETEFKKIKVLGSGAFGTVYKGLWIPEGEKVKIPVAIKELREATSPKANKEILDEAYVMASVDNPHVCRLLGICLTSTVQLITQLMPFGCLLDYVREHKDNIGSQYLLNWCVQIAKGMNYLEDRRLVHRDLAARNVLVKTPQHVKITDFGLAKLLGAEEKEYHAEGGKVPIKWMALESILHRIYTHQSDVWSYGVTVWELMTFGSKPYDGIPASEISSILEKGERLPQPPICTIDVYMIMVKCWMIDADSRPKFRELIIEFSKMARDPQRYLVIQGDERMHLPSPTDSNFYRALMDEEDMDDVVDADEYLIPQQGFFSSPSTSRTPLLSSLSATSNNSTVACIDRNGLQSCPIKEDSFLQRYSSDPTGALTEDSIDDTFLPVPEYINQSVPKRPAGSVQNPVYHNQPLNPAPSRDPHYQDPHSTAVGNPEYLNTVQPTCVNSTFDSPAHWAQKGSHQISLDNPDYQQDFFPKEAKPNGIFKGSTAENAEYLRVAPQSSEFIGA
Protocol for Akt: Akt expression level was assayed using the Phospho Sandwich Akt (Phospho-Ser473) ELISA Kit (Cat. # MBS9511022, MyBioSource, San Diego, CA, USA) containing the components necessary for the semi-quantitative determination of Akt concentrations within experimental cell lysate samples. The assay was performed according to company protocols: the lysates were diluted with assay diluent and 100 μL/well was dispensed, wrapped with parafilm, and incubated for 2 h. They were shaken with RT or overnight at 4 °C. The plate was washed 3 times with 1× Wash Buffer 300 μL/well with a vacuum-based plate washer. Then, the plate was stricken on absorbent paper to remove as much residual liquid as possible. The Detection Antibody was diluted to 1× and 100 μL/well was dispensed, wrapped with parafilm, and incubated on a shaker for 2 hrs at RT, and the washing step was repeated. Streptavidin-HRP was diluted to 1× and 100 μL/well was dispensed, wrapped with parafilm, and incubated on a shaker for 30 min at RT. Ready-to-use substrate was brought to RT and 100 μL/well was dispensed and the reaction was allowed to incubate on an orbital shaker for 20–30 min. The reaction was stopped with stop solution 100 μL/well. The wells turned from blue to yellow and were read at 450 nm.
Protocol for ERK: ERK ELISA Kit (Cat. # E4317-100, BioVision, Inc., Waltham, MA, USA) was used for the in vitro quantitative determination of Human ERK. Firstly, the plate was washed 2 times with Wash Solution before the standard, sample, and control wells were added. A total of 100 μL of each standard or sample was added into appropriate wells. […] The cover was removed and the plate content was discarded without washing or letting the wells completely dry. A total of 0.1 mL of Biotin-detection antibody work solution was added into the above wells. […] The solution was discarded and washed 3 times with Wash Solution. It was washed by filling each well with Wash Buffer (350 μL) using a multi-channel pipette or auto-washer. It was soaked for 1–2 min, and then all residual wash-liquid was removed from the wells by aspiration. After the last wash, any remaining wash buffer was removed by aspirating or decanting. The plate was clapped on absorbent filter papers or other absorbent materials. […] The solution was discarded and washed 5 times with wash solution as mentioned before. […] A total of 50 μL of Stop Solution was added to each well. The result was read at 450 nm within 20 min.
Protocol for WI-38 normal cells: The new prepared candidates 5a–5n were evaluated for their antitumor activities against four selected cell lines, the adenocarcinomic human alveolar basal epithelial cells NCI-A549, NCI-H1975, human pulmonary adenocarcinoma PC9, and the fibroblast-like fetal lung cells WI-38 (purchased from American Type Culture Collection (ATCC), United States of America), using an MTT assay [26], as described earlier [27].

Turning to `CC1(c2ccccc2)NC(=O)N(CC(=O)Nc2cccc(F)c2)C1=O` (centres unmarked) [5g, N-(3-fluorophenyl)-2-(4-methyl-2,5-dioxo-4-phenylimidazolidin-1-yl)acetamide], the melting point was in the range of 182 to 185 °C. Also, in the data set with PC9 cells, the IC50 is 11.5 ± 1.25 µM. In data set [1], the IC50 worked out at 18.7 µM. The IC50 with H1975 cells amounted to 6.84 ± 0.37 µM. The IC50 in the data set on A549 cells turned out to be 37.6 ± 2.37 µM.

For the compound `COc1ccc(C)cc1NC(=O)CN1C(=O)NC(C)(c2ccccc2)C1=O` (centres unmarked) [5d, N-(2-methoxy-5-methylphenyl)-2-(4-methyl-2,5-dioxo-4-phenylimidazolidin-1-yl)acetamide], the melting point was in the range of 170 to 173 °C. Moreover, in the data set on PC9 cells, the half-maximal inhibitory concentration (IC50) was 7.5 ± 0.81 µM. In data set [1], the IC50 came to 18.4 µM. The IC50 in the data set on H1975 cells is 11.9 ± 0.65 µM. Besides, in the data set on A549 cells, the IC50 amounted to 35.8 ± 2.26 µM.

In turn, `COc1cccc(NC(=O)CN2C(=O)NC(C)(c3ccccc3)C2=O)c1` (centres unmarked) [5n, N-(3-methoxyphenyl)-2-(4-methyl-2,5-dioxo-4-phenylimidazolidin-1-yl)acetamide] showed a melting point of 148 to 151 °C. For the same compound, the IC50 in the data set with PC9 cells was determined as 6.87 ± 0.75 µM. Moreover, in [1], the IC50 turned out to be 8.7 µM. Moreover, the IC50 in the data set with H1975 cells came out at 18.8 ± 1.02 µM. The IC50 with A549 cells was found to be 0.42 ± 0.03 µM.

As for `COc1ccc(NC(=O)CN2C(=O)NC(C)(c3ccccc3)C2=O)cc1Cl` (centres unmarked) [5c, N-(3-chloro-4-methoxyphenyl)-2-(4-methyl-2,5-dioxo-4-phenylimidazolidin-1-yl)acetamide], the melting point lay within 163 to 166 °C. The IC50 in the data set on PC9 cells worked out at 21.3 ± 2.31 µM. In data set [1], the IC50 is 56 µM. Further, the concentration for half-maximal inhibition (IC50) with H1975 cells worked out at 55.3 ± 3.01 µM. Also, in the data set with A549 cells, the concentration for half-maximal inhibition (IC50) is 91.4 ± 5.75 µM.

`CCOc1ccc(NC(=O)CN2C(=O)NC(C)(c3ccccc3)C2=O)cc1` (centres unmarked) [5l, N-(4-ethoxyphenyl)-2-(4-methyl-2,5-dioxo-4-phenylimidazolidin-1-yl)acetamide] had a melting point of 153 to 155 °C. In addition, the half-inhibitory concentration (IC50) in the data set on PC9 cells came to 6.69 ± 0.73 µM. Also, in data set [1], the IC50 was determined as 17.6 µM. The IC50 in the data set with H1975 cells came out at 43.8 ± 2.39 µM. The IC50 in the data set on A549 cells amounted to 2.37 ± 0.15 µM.

For the compound `CC1(c2ccccc2)NC(=O)N(CC(=O)Nc2ccc(F)c(F)c2)C1=O` (centres unmarked) [5h, N-(3,4-difluorophenyl)-2-(4-methyl-2,5-dioxo-4-phenylimidazolidin-1-yl)acetamide], the melting point was 195 to 198 °C. The IC50 in the data set with PC9 cells is 15.4 ± 1.67 µM. Besides, the IC50 in [1] was found to be 16.2 µM. In addition, the IC50 in the data set on H1975 cells was 21.3 ± 1.16 µM. Moreover, the concentration for half-maximal inhibition (IC50) with A549 cells was 11.9 ± 0.75 µM.

Consider `COc1ccc(NC(=O)CN2C(=O)NC(C)(c3ccccc3)C2=O)c(C)c1` (centres unmarked) [5j, N-(4-methoxy-2-methylphenyl)-2-(4-methyl-2,5-dioxo-4-phenylimidazolidin-1-yl)acetamide], for which the melting point was 143 to 146 °C. The IC50 in the data set with PC9 cells was 9.97 ± 1.08 µM. The IC50 in data set [1] was determined as 15 µM. For the same compound, the half-maximal inhibitory concentration (IC50) with H1975 cells came to 30.9 ± 1.68 µM. For the same compound, the IC50 in the data set with A549 cells worked out at 4.11 ± 0.26 µM.

In turn, `CC1(c2ccccc2)NC(=O)N(CC(=O)Nc2ccc(F)c(Cl)c2)C1=O` (centres unmarked) [5k, N-(3-chloro-4-fluorophenyl)-2-(4-methyl-2,5-dioxo-4-phenylimidazolidin-1-yl)acetamide] yielded a melting point of 170 to 173 °C. Moreover, the IC50 in the data set with PC9 cells was determined as 3.25 ± 0.35 µM. Besides, in data set [1], the IC50 was 25.9 µM. The IC50 with H1975 cells was 5.84 ± 0.32 µM. Moreover, the IC50 with A549 cells stood at 68.6 ± 4.32 µM.

On to `CC1(c2ccccc2)NC(=O)N(CC(=O)Nc2ccccc2F)C1=O` (centres unmarked) [5f, N-(2-fluorophenyl)-2-(4-methyl-2,5-dioxo-4-phenylimidazolidin-1-yl)acetamide], for which the melting point was in the range of 153 to 155 °C. The same compound gave an IC50 against EGFR^L858R of 0.17 ± 0.003 µM. Besides, the IC50 with PC9 cells worked out at 4.4 ± 0.48 µM. The IC50 in data set [1] is 2.57 µM. The compound further displayed an IC50 on EGFR^T790M of 0.26 ± 0.005 µM. Besides, the IC50 with H1975 cells came to 1.38 ± 0.07 µM. In addition, on EGFR^WT, the midpoint of inhibition, the IC50, lay at 0.06 ± 0.011 µM. In the data set with WI-38 normal cells, the half-inhibitory concentration (IC50) was determined as 42.5 ± 2.32 µM. In the data set with WI-38 normal cells (ratio of WI-38 IC50 versus erlotinib), the “fold superior to the reference erlotinib on WI-38” value is recorded as 2.3 fold. Moreover, the IC50 in the data set on A549 cells is 1.94 ± 0.12 µM.

As for `C#Cc1cccc(Nc2ncnc3cc(OCCOC)c(OCCOC)cc23)c1` [Erlotinib, erlotinib, reference compound], the 50% inhibitory concentration (IC50) in the data set with PC9 cells stood at 16.3 ± 0.84 µM; in [1], 11.3 µM; in the data set on Akt, 25.4 nM; in the data set on H1975 cells, 9.7 ± 0.53 µM; with WI-38 normal cells, 18.6 ± 1.24 µM; with ERK, 17.5 ± 0.18 nM. For the same compound, the IC50 in the data set with A549 cells worked out at 7.81 ± 0.43 µM.

The compound `COc1ccccc1NC(=O)CN1C(=O)NC(C)(c2ccccc2)C1=O` (centres unmarked) [5m, N-(2-methoxyphenyl)-2-(4-methyl-2,5-dioxo-4-phenylimidazolidin-1-yl)acetamide] showed a melting point of 85 to 90 °C. In addition, in the data set on PC9 cells, the IC50 came to 28.3 ± 3.08 µM. The IC50 in data set [1] came out at 14.3 µM. Moreover, the IC50 with H1975 cells came to 2.27 ± 0.12 µM. Moreover, the IC50 in the data set on A549 cells stood at 12.3 ± 0.78 µM.

In turn, `CC1(c2ccccc2)NC(=O)N(CC(=O)Nc2ccc(F)c(F)c2F)C1=O` (centres unmarked) [5i, N-(2,3,4-trifluorophenyl)-2-(4-methyl-2,5-dioxo-4-phenylimidazolidin-1-yl)acetamide] had a melting point of 205 to 210 °C. Also, in the data set on PC9 cells, the IC50 turned out to be 6.06 ± 0.35 µM. The IC50 in data set [1] amounted to 6.93 µM. In the data set on H1975 cells, the IC50 amounted to 14 ± 0.76 µM. Moreover, the IC50 in the data set on A549 cells amounted to 0.73 ± 0.05 µM.

For the compound `CC1(c2ccccc2)NC(=O)N(CC(=O)Nc2ccc(F)cc2)C1=O` (centres unmarked) [5e, N-(4-fluorophenyl)-2-(4-methyl-2,5-dioxo-4-phenylimidazolidin-1-yl)acetamide], the melting point fell in the range of 226 to 228 °C. Besides, the IC50 in the data set with PC9 cells stood at 2.52 ± 0.27 µM. Further, the IC50 in data set [1] turned out to be 6.35 µM. For the same compound, the IC50 in the data set with H1975 cells amounted to 9.34 ± 0.51 µM. In addition, in the data set on A549 cells, the IC50 was 7.19 ± 0.45 µM.

`CC1(c2ccccc2)NC(=O)N(CC(=O)Nc2ccc(S(N)(=O)=O)cc2)C1=O` (centres unmarked) [5b, N-(4-aminosulphonylphenyl)-2-(4-methyl-2,5-dioxo-4-phenylimidazolidin-1-yl)acetamide]: the melting point fell in the range of 122 to 125 °C. Further, the concentration for half-maximal inhibition (IC50) with PC9 cells worked out at 5.12 ± 0.56 µM. Further, the IC50 in data set [1] was 9.29 µM. Besides, in the data set with H1975 cells, the IC50 was determined as 8.2 ± 0.45 µM. Also, the IC50 in the data set with A549 cells came out at 14.5 ± 0.92 µM.
